Data published in US9340477B2, “Process for production of hydroxystilbene derivative having physiological activity” (UHA MIKAKUTO CO., LTD., priority 2010, dated 2016).

Key:
[1] = tested on: HL-60 cells (human promyelocytic leokemia cells); assay: Cancer cell growth suppressing action using HL-60 cells (Cell counting kit-8); assay type: cell-based; details: 24 hours, 6.3-100 μM, viable cells vs DMSO only, read-out: Cell growth suppressing ability to HL-60 (IC50)
Experimental: Next, in order to see the effect of the hydroxystilbene derivative to cancer cells, cancer cell growth suppressing action using HL-60 cells (human promyelocytic leokemia cells) was tested.
For culturing the HL-60 cells, an enriched culture medium “RPMI-1640” (manufactured by Sigma-Aldrich Japan) containing 4 mM glutamine (L-Glutamine, manufactured by Sigma-Aldrich Japan) and 10% FBS (Foetal Bovine Serum, manufactured by Biological Industries) was used. For the test, a 96-well plate for cell culture (manufactured by Corning Japan) was used, and the HL-60 cells whose number of cells was adjusted to be 5×10^5 cells/mL were seeded at 100 μL per well
As samples, p-coumaric acid, ferulic acid, caffeic acid, sinapic acid, resveratrol, pterostilbene, and the UHA1027, the UHA1028, the UHA1123, the UHA1124, the UHA1125, the UHA7032, the UHA7033, and the UHA9021 which were already purified were used. With respect to the preparation of the samples, each compound was dissolved in DMSO (Wako Pure Chemical Industries, Ltd.), and then adjusted in such a manner that the final concentration in the HL-60 cell culture solutions was 6.3 μM, 12.5 μM, 25 μM, 50 μM, and 100 μM. Then, the test was started.
The number of viable cells was quantified by an MTT method using a “Cell counting kit-8” (manufactured by DOJINDO LABORATORIES). 24 hours after starting the test, 10 μL of a Cell counting kit-8 solution was added to each well, and then sufficiently stirred. After a shading reaction for 1 hour, the absorbancy was measured at a measurement wavelength of 450 nm using a plate leader (Biorad Laboratories, Inc., “BIO-RAD Model 680”). Then, the cell viability was calculated based on the obtained data. The cell viability is a value obtained by setting the number of viable cells of the culture liquid to which only DMSO as a solvent was added to 100%, and then calculating the number of viable cells under the concentration of each compound as a relative value. From the relationship between the concentration of each compound and the cell viability, the concentration IC50 (50% inhibition concentration) at which the cell growth is suppressed by 50% was calculated.

[2] = tested on: SCC-4 cells (human oral cancer cells, ATCC); assay: Cancer cell growth suppressing action using SCC-4 oral cancer cells (Cell counting kit-8); assay type: cell-based; details: 6.3-100 μM, Cell counting kit-8, DMSO negative control, read-out: Cell growth suppressing ability (IC50)
Experimental: Next, in order to see the effect of the hydroxystilbene derivative to oral cancer cells, cancer cell growth suppressing action using SCC-4 cells (human oral cancer cells, ATCC) was tested.
For culturing the SCC-4 cells, a DMEM/F-12 (1:1) culture medium (manufactured by GIBCO) containing 400 ng/mL hydrocortisone (manufactured by Sigma-Aldrich Japan), 1% antibiotic-antimycotic (manufactured by GIBCO), and 10% FBS (Foetal Bovine Serum, manufactured by ATCC) was used. For the test, a collagen I coat 96 well plate for cell culture (manufactured by Japan BD) was used, and SCC-4 cells whose number of cells was adjusted to be 5×10^5 cells/mL were seeded at 100 μL per well. The cells were cultured under the conditions of 37° C. and 5% CO2 for 24 hours, and were used for the test in a confluent state of 80% or higher.
As samples, p-coumaric acid, ferulic acid, caffeic acid, sinapic acid, resveratrol, pterostilbene, piceatannol, and the UHA1027, the UHA1028, the UHA1123, the UHA1124, the UHA1125, the UHA7032, the UHA7033, the UHA7034, and the UHA9021 which were already purified were used. With respect to the preparation of the samples, each compound was dissolved in DMSO, and then prepared in such a manner as to achieve 0.63 mM, 1.25 mM, 2.5 mM, 5 mM, and 10 mM. The samples were added in such a manner that the final concentration in the SCC-4 cell culture solution was 6.3 μM, 12.5 μM, 25 μM, 50 μM, and 100 μM. Then, the test was started. A sample to which an equivalent amount of only DMSO as the solvent was added was used as a negative control.
The number of viable cells was quantified by an MTT method using a “Cell counting kit-8” in the same manner as in Example 15, and the concentration IC50 at which the cell growth is suppressed by 50% was calculated.

[3] = molecular target: rat intestine derived lipase; assay: Lipase inhibitory action test (Lipase kit S); assay type: biochemical; details: rat intestine acetone powder lipase, 30° C., 10 minutes reaction
Experimental: In order to see the inhibitory action to lipase of the hydroxystilbene derivative, an inhibitory action test using rat intestine derived lipase was performed.
As lipase, one obtained by suspending 100 mg of rat derived intestine acetone powder (manufactured by Sigma-Aldrich Japan) in 1 mL of 100 mM citric acid buffer (pH 6.0), stirred at 4° C. for 1 hour, centrifuging the same (at 15000 rpm for 45 minutes at 4° C.), and then diluting the supernatant by 1500 times was used as a lipase solution.
As samples, p-coumaric acid, caffeic acid, sinapic acid, resveratrol, and the UHA1027, the UHA1028, and the UHA9021 which were already purified were used. With respect to the preparation of the samples, each compound was dissolved in DMSO, and then prepared in such a manner as to achieve 0.1 mM, 0.5 mM, 1 mM, 2 mM, and 4 mM.
For measuring the activity, a “Lipase kit S” (Trade name, manufactured by Dainippon Pharmaceutical Co., Ltd.) was used. First, in accordance with a preparation method described in the catalog of the Lipase kit S, a color developing liquid was prepared. Reaction liquids in which 70 μl of the color developing liquid, 2 μl of an esterase inhibitor, 10 μl of the lipase solution, and 10 μl of the samples (Final concentration: 10 μM, 50 μM, 100 μM, 200 μM, 400 μM, and 1000 μM) were mixed were prepared, preincubated at 30° C. for 5 minutes, and then 8 μl of a substrate solution described in the catalog was added. Then, a reaction was started. After reacting for 10 minutes, 150 μl of a reaction stop liquid prepared in accordance with the preparation method described in the catalog of the Lipase kit S was added to stop the reaction. The resultant substance was subjected to a measurement of absorbancy at a wavelength of 415 nm. A reaction liquid to which only DMSO as the solvent of the sample was added was used as a positive control and one to which 10 μl of 100 mM citric acid buffer (pH 6.0) was added instead of the lipase solution was used as a negative control. From the relationship between the lipase inhibition rate calculated based on the data obtained therefrom and the concentration of each compound, the concentration IC50 at which the lipase activity is inhibited by 50% was calculated.

[4] = Physicochemical properties: solubility in solvents

| SMILES | IC50 [1] | IC50 [2] | IC50 [3] | Solubility: DMSO [4] | Solubility: Chloroform [4] | Solubility: Ethanol [4] | Solubility: Ethyl acetate [4] | Solubility: Methanol [4] | Solubility: Water [4] |
| --- | --- | --- | --- | --- | --- | --- | --- | --- | --- |
| CC(c1ccc(O)c(O)c1)c1c(O)cc(/C=C/c2ccc(O)cc2)cc1O (single isomer, unassigned) [UHA1027] | 5.9 µM | 28.9 µM | 452 µM | Soluble | Soluble | Soluble | Soluble | Soluble | Poorly soluble |
| CC(c1ccc(O)cc1)c1c(O)cc(/C=C/c2ccc(O)c(O)c2)cc1O (single isomer, unassigned) [UHA7034] |  | 49.6 µM |  | Soluble | Soluble | Soluble | Soluble | Soluble | Poorly soluble |
| CC(c1ccc(O)cc1)c1c(O)cc(/C=C/c2ccc(O)cc2)cc1O (single isomer, unassigned) [UHA9021] | 43.4 µM | 38.2 µM | 331 µM | Soluble | Soluble | Soluble | Soluble | Soluble | Poorly soluble |
| O=C(O)/C=C/c1ccc(O)c(O)c1 [Coffeic acid, caffeic acid, reference compound] | > 100 µM | > 100 µM | > 1000 µM |  |  |  |  |  |  |
| COc1cc(/C=C/C(=O)O)ccc1O [Ferulic acid, ferulic acid, reference compound] | > 100 µM | > 100 µM |  |  |  |  |  |  |  |
| Oc1cc(O)cc(/C=C/c2ccc(O)c(O)c2)c1 [Piceatannol, piceatannol, reference compound] |  | > 100 µM |  |  |  |  |  |  |  |
| COc1cc(/C=C/c2ccc(O)cc2)cc(OC)c1 [Pterostilbene, pterostilbene, reference compound] | 60.4 µM | 73.9 µM |  |  |  |  |  |  |  |
| Oc1ccc(C=Cc2cc(O)cc(O)c2)cc1 [Resveratrol, resveratrol, reference compound] | 76.5 µM | > 100 µM | > 1000 µM |  |  |  |  |  |  |
| COc1cc(/C=C/C(=O)O)cc(OC)c1O [Sinapic acid, sinapic acid, reference compound] | > 100 µM | > 100 µM | > 1000 µM |  |  |  |  |  |  |
| COc1cc(C(C)c2c(O)cc(/C=C/c3ccc(O)cc3)cc2O)ccc1O (stereo not shown) [UHA1123] | 31.5 µM | 50.3 µM |  | Soluble | Soluble | Soluble | Soluble | Soluble | Poorly soluble |
| COc1cc(C(C)c2c(O)cc(O)cc2/C=C/c2ccc(O)cc2)ccc1O (stereo not shown) [UHA1124] | 14.4 µM | 17.4 µM |  | Soluble | Soluble | Soluble | Soluble | Soluble | Poorly soluble |
| COc1cc(C(C)c2c(O)cc(/C=C/c3ccc(O)cc3)c(C(C)c3ccc(O)c(OC)c3)c2O)ccc1O (stereo not shown) [UHA1125] | 13.4 µM | 26.1 µM |  | Soluble | Soluble | Soluble | Soluble | Soluble | Poorly soluble |
| COc1cc(/C=C/c2ccc(O)cc2)c(C(C)c2ccc(O)cc2)c(OC)c1 (stereo not shown) [UHA7032] | 31 µM | 37 µM |  | Soluble | Soluble | Soluble | Soluble | Soluble | Poorly soluble |
| COc1cc(/C=C/c2ccc(O)cc2)cc(OC)c1C(C)c1ccc(O)cc1 (stereo not shown) [UHA7033] | 35.5 µM | 41.7 µM |  | Soluble | Soluble | Soluble | Soluble | Soluble | Poorly soluble |
| O=C(O)/C=C/c1ccc(O)cc1 [p-coumaric acid, reference compound] | > 100 µM | > 100 µM | > 1000 µM |  |  |  |  |  |  |
